The values that follow come from patent US20190151625A1, “DRUG DELIVERY APPARATUS AND METHOD” (INNOVENTIONS LTD., priority 2016, published 2019).

This data set can be described thus: Release of lidocaine dissolved in oil through the silicone balloon wall of device 20. It is filed as physicochemical. As to the method:
Experiments were performed using Lidocaine dissolved in oily substances using two different expansion volumes (one with 10 ml, the other with 16 ml) of the balloon of the device 20.
A. The balloon was expanded by injection of 10 ml of the oily solution into the balloon. A series of 4 experiments using lidocaine dissolved in oil was performed. The results were as follows: • 1. After 28 days—436 mg out of 500 mg was released. • 2. After 29 days—all the 500 mg was released (out of 500 mg). • 3. After 22 days—all the 500 mg was released (out of 500 mg). • 4. After 63 days—all the 1000 mg was released (out of 1000 mg).
B. The balloon was expanded by injection of 16 ml of the oily solution into the balloon. 2 groups and a series of 3 experiments using lidocaine dissolved in oil were performed. The results were as follows: • 1. After 21 days: —all the 500 mg was released (out of 500 mg) • […] was released, out of 1000 mg • 1086 mg was released, out of […] • 2. After 84 days—all the 500 mg was released (out of 500 mg) • all the 1000 mg was released (out of 1000 mg) • all the 1500 mg was released (out of 1500 mg)

Take `CCN(CC)CC(=O)Nc1c(C)cccc1C` [Lidocaine]: the “release through the silicone balloon wall” value (Lidocaine dissolved in oily substances, balloon expansion volumes 10 ml and 16 ml) is recorded as “released in large quantities”. In addition, the amount released (balloon expanded with 10 ml oily solution, experiment 1, after 28 days, out of 500 mg) was 436 mg; the amount released (balloon expanded with 10 ml oily solution, experiment 2, after 29 days, out of 500 mg) amounted to 500 mg; the amount released (balloon expanded with 10 ml oily solution, experiment 3, after 22 days, out of 500 mg) came out at 500 mg; the amount released (balloon expanded with 10 ml oily solution, experiment 4, after 63 days, out of 1000 mg) stood at 1000 mg; the amount released (balloon expanded with 16 ml oily solution, after 21 days, out of 500 mg) is 500 mg; the amount released (balloon expanded with 16 ml oily solution, after 21 days, out of 1500 g) was 1086 mg. Also, the amount released (balloon expanded with 16 ml oily solution, after 84 days, out of 500 mg) is reported as 500 mg; the amount released (balloon expanded with 16 ml oily solution, after 84 days, out of 1000 mg) is reported as 1000 mg; the amount released (balloon expanded with 16 ml oily solution, after 84 days, out of 1500 mg) worked out at 1500 mg.
